Test results as given in EP4635565A1, “PRENYLATED TETRAHYDROQUINOLINES AND QUINOLINES WITH PPAR AGONIST ACTIVITY” (Fundación para la Investigación del Hospital Clínico de la …, priority 2024, dated 2025).

Columns and labels:
[1] = test system: TNFα-induced proinflammatory genes; experiment: TNFα-induced pro-inflammatory gene expression by RT-qPCR in L929sA WT cells; type: cell-based, mouse; conditions: 10 µM for 1 h, then TNFa, total induction time 6 h
Experimental: RNA was isolated using the RNeasy Purification Kit (Qiagen) according to the manufacturer's instructions. cDNA was synthesised using a PrimeScript kit (Takara). RT-qPCR was performed using Light Cycler 480 SYBR Green I Master Mix (Roche).
(§1) PPARs play crucial roles in controlling inflammatory responses. NF-κB is a transcription factor that plays a pivotal role in the expression of multiple genes involved in the immune and inflammatory responses. To study the potential anti-inflammatory effects of the tetrahydroquinolines and quinolines of the invention, the NF-κB-dependent physiological human IL-8 promoter construct, p1481.IL8P-Luc+, which is stably integrated into L929sA cells, was tested. After transfection, cells were treated at 10 µM with 5a, 5b, 8a, or 8b prior to TNFa stimulation. […] Given the significant decrease in NF-κB-IL8P-Luc+ reporter gene activity observed after treatment with the 2- or 3-prenylated tetrahydroquinolines 5a and 5b and the 3-prenylated quinoline 8b, their potential anti-inflammatory effects at the transcriptional level for other inflammatory mediators was evaluated. To achieve this, the L929sA WT cells were treated with 5a, 5b and 8b at 10 µM for 1 h, followed by TNFa stimulation for a total induction time of 6 h. The expression of inflammatory genes was evaluated by RT-qPCR.

[2] = test system: NF-κB-IL8P-Luc+; experiment: NF-κB-IL8P transactivation assay (TNFα-stimulated L929sA cells); type: cell-based, mouse; conditions: 10 µM, 1 h before TNF (2000 IU/ml), total induction time 6 h; compared to GW7647
Experimental: L929sA mouse fibroblasts were stably transfected using the calcium phosphate precipitation protocol, as described previously with p1481.IL8P-Luc+ plasmid construct. The indicated induction was performed at least in triplicates. All conditions were solvent-controlled. Subsequently, the cells were washed with PBS and lysed using TROPIX lysis buffer. Cellular luciferase levels were normalised to those of β-galactosidase (TROPIX, Bedford, MA, USA).
as §1

[3] = test system: ob/ob mice; experiment: Gene expression (qPCR) in liver and epididymal white adipose tissue of ob/ob mice; type: in vivo; conditions: epididymal white adipose tissue and/or liver of ob/ob mice, 10 mg/kg/day, 15 days orally
Experimental: Animal studies were carried out in accordance with Directive 2010/63/EU for experimentation on animals. The handling of the animals and the experimental protocols were approved by the Animal Experimentation Ethics Committee of the University of Valencia (Protocol No. A1469445706311). Six-week-old male ob/ob mice (C57BL/6.Cg-Lepob/J) were supplied by Charles River Laboratories International (Wilmington, MA). Blood samples were collected from mice fasted for 6 hours to determine basal blood glucose levels. The animals, randomly divided into two groups (N ≈ 10-11 per group), were treated daily with vehicle (1% hydroxyethyl cellulose, Sigma-Aldrich) or with tetrahydroquinoline 5a at 10 mg/kg/day, for 15 days orally. After 15 days of treatment, and 6 h of fasting, the mice were anesthetized by inhalation of isoflurane and blood samples were collected in tubes with heparin or EDTA by intracardiac puncture. Plasma samples were obtained and stored at -80°C. Liver and epididymal white adipose tissue were removed and part of both organs were quickly frozen in liquid N2 for qPCR studies.
Gene expression analysis was carried out by real-time qPCR. To this end, total RNA was extracted from liver and epididymal white adipose tissue biopsies using TRIzol reagent (Invitrogen, Carlsbad, CA, USA). The isolated RNA was retro-transcribed using the Maxima First-Strand kit and amplified with a Luminaris Color qPCR MasterMIX (Fermentas, Whaltham, MA, USA) in a 7900 FastSystem thermal cycler. The mRNA levels were normalized to the expression of the constitutive gene cyclophilin.

[4] = test system: THP-1 cells; experiment: Cytotoxicity, Annexin V-FITC/PI dual staining by flow cytometry; type: cell-based, human; conditions: 30 and 100 µM, 24 h
Experimental: The cytotoxicity of tetrahydroquinoline and quinoline esters 5a, 5b, 8a and 8b was evaluated at 30 and 100 µM by flow cytometry to assess cell survival using an Annexin V-FITC/PI dual staining assay. THP-1 cells (3 × 10^4 cells per well) were seeded in 24-well plates and allowed to grow overnight. The medium was then replaced and incubations with the different compounds or DMSO were performed during 24 h. Then, all cells were processed with the Annexin V-assay kit (ANXCFK7, Immunostep, Salamanca, Spain) according to the manufacturer's instruction. A Becton Dickinson LSR Fortessa cytometer (BD Biosciences, Franklin Lakes, NJ, USA) was used for samples, and cell analysis were performed using FACSDiva X20 software.
The potential cytotoxic effects of the compounds of the invention 5a, 5b, 8a, and 8b on the human macrophage cell line THP-1 were evaluated by flow cytometry to assess cell survival using an Annexin V-FITC/PI dual staining assay. The THP-1 cells were treated with concentrations of 30 and 100 µM for 24 h.

[5] = test system: PDK4-(PPRE)3-Luc+; experiment: Pdk4 transactivation assay (PDK4-(PPRE)3-Luc+ reporter in L929sA cells); type: cell-based, mouse; conditions: 10 µM, 6 h
Experimental: Transfection of L929sA cells stably expressing reporter genes was performed using the calcium phosphate precipitation protocol according to standard procedures with a 10-fold excess of the plasmid of interest in a pGL3-basic vector containing Luc+, a modified firefly luciferase gene (Promega Biotec, Madison, Wis,) USA. USA). The Pdk4 reporter was created using an enhancer site linked to the Pdk4 promoter containing three PPRE extracted from mouse liver genomic DNA. The aforementioned plasmid construct was then introduced into a pMet7 backbone, which had previously been cloned with a luciferase gene site, using Xhol and Sacl cut sites. The resulting construct was subjected to geneticin (neomycin) antibiotic selection to isolate individual clones. A stable cell line, designated Pdk4-Luc+, was subsequently established in L929sA cells, which also contained a constitutively expressed galactosidase reporter and a neomycin selection cassette.
Pyruvate Dehydrogenase Kinase 4 gene (Pdk4), a well-known target gene of PPARs, encodes a protein that regulates the phosphorylation and inactivation of the pyruvate dehydrogenase complex in response to physiological conditions. This response switches the energy source from glucose to fatty acids to maintain blood glucose levels to, thereby, increase lipid metabolism. Because it is a well-known target gene of PPARs, the effect of the 2- and 3-prenylated esters of tetrahydroquinolines and quinolines on a Pdk4 region reported to bind PPARα, was evaluated. The L929sA cells that were stably transfected with a PDK4-(PPRE)3-Luc+ reporter gene construct were used.

How did the “transcription of TNFα-induced proinflammatory genes” value [1] turn out when CCOC(=O)CC/C(C)=C/CCC1CCc2cc(OCc3ccccc3)ccc2N1C (centres unmarked) [Compound 5a, Ethyl (E)-7-(6-(benzyloxy)-1-methyl-1,2,3,4-tetrahydroquinolin-2-yl)-4-methylhept-4-enoate] was run?
The value was “downregulated the transcription of TNFα-induced proinflammatory genes such as Cc/5 and II-6”.

And the “transactivation of the TNFα-dependent NF-κB-driven reporter” value [2]?
The value was “can repress the transactivation of the TNFα-dependent NF-κB-driven reporter”.

What about the “expression of Acox1” value [3] of the same compound?
The value was “increased”.

And the “expression of Cpt1a” value [3]?
The value was “increased”.

What about the “expression of Pdk4” value [3] of the same compound?
The value was “increased”.

And the “cytotoxic effects (cell survival)” value [4]?
Its value is “No cytotoxic effects were observed”.

What about the “transactivation of the PDK4-Luc+ indicator” value ([5]; L929sA cells, compared to GW7647 at 1 µM) of the same compound?
Its value is “increased the transactivation of the PDK4-Luc+ indicator”.

And the “maximal transactivation response compared with GW7647” value ([5]; GW7647 at 1 µM as positive control)?
Its value is “outperformed the maximal activity of the prior art compound GW7647”.
